In the supplement of paper PMC10307832:

What was measured:
Test in all cases: relative viability (nuclei count vs DMSO), 5 days (fraction); higher = more cells survive
Ibrutinib + Pictilisib = compound: C=CC(=O)N1CCC[C@@H](n2nc(-c3ccc(Oc4ccccc4)cc3)c3c(N)ncnc32)C1 [Ibrutinib] + CS(=O)(=O)N1CCN(Cc2cc3nc(-c4cccc5[nH]ncc45)nc(N4CCOCC4)c3s2)CC1 [Pictilisib] (partner 1 µM)
In short: (§1)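 Nuclei were stained with Hoechst during a one-step fixation (final 0.05% Triton X-100, 1% formaldehyde, 1 ug/ml Hoechst) carried out 5 days after dosing, then counted on 4× images. The cells, lung cancer lines in 1536-well plates, had been dosed by pin tool the day after seeding with one drug alone or a fixed anchor-drug dose plus five library-drug doses (not always all listed) in √10 steps. Relative viability is the nuclei count in treated wells divided by that in vehicle wells, and each value is the median of duplicate plates.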

BMX-IN-1 + Pictilisib = compound: C=CC(=O)Nc1cc(-n2c(=O)ccc3cnc4ccc(-c5ccc(NS(C)(=O)=O)cc5)cc4c32)ccc1C [BMX-IN-1] + CS(=O)(=O)N1CCN(Cc2cc3nc(-c4cccc5[nH]ncc45)nc(N4CCOCC4)c3s2)CC1 [Pictilisib] (partner 1 µM)
In short: as §1

BMX-IN-1 + Lapatinib = compound: C=CC(=O)Nc1cc(-n2c(=O)ccc3cnc4ccc(-c5ccc(NS(C)(=O)=O)cc5)cc4c32)ccc1C [BMX-IN-1] + CS(=O)(=O)CCNCc1ccc(-c2ccc3ncnc(Nc4ccc(OCc5cccc(F)c5)c(Cl)c4)c3c2)o1 [Lapatinib] (partner 2 µM)
In short: as §1

BMX-IN-1 + Olaparib = compound: C=CC(=O)Nc1cc(-n2c(=O)ccc3cnc4ccc(-c5ccc(NS(C)(=O)=O)cc5)cc4c32)ccc1C [BMX-IN-1] + O=C(c1cc(Cc2n[nH]c(=O)c3ccccc23)ccc1F)N1CCN(C(=O)C2CC2)CC1 [Olaparib] (partner 8 µM)
In short: as §1

Cell Line	relative viability (Ibrutinib + Pictilisib; first compound 0.005 µM)	relative viability (Ibrutinib + Pictilisib; first compound 0.01581 µM)	relative viability (Ibrutinib + Pictilisib; first compound 0.05 µM)	relative viability (Ibrutinib + Pictilisib; first compound 0.1581 µM)	relative viability (Ibrutinib + Pictilisib; first compound 0.5 µM)	relative viability (BMX-IN-1 + Pictilisib; first compound 0.02 µM)	relative viability (BMX-IN-1 + Pictilisib; first compound 0.2 µM)	relative viability (BMX-IN-1 + Pictilisib; first compound 0.6325 µM)	relative viability (BMX-IN-1 + Pictilisib; first compound 2 µM)	relative viability (BMX-IN-1 + Lapatinib; first compound 0.02 µM)	relative viability (BMX-IN-1 + Lapatinib; first compound 0.2 µM)	relative viability (BMX-IN-1 + Lapatinib; first compound 0.6325 µM)	relative viability (BMX-IN-1 + Lapatinib; first compound 2 µM)	relative viability (BMX-IN-1 + Olaparib; first compound 0.02 µM)	relative viability (BMX-IN-1 + Olaparib; first compound 0.2 µM)	relative viability (BMX-IN-1 + Olaparib; first compound 0.6325 µM)	relative viability (BMX-IN-1 + Olaparib; first compound 2 µM)
NCI-H596	0.43	0.406	0.442	0.392	0.393	0.382	0.379	0.405	0.343	0.987	1.13	1.12	0.935	0.712	0.641	0.692	0.755
NCI-H647	0.28	0.418	0.357	0.323		0.498	0.356	0.396	0.471	1.3	0.957	1.43	0.949	0.687	1.04	0.553	0.574
NCI-H650		0.883		0.973	0.678	1.02	0.826	0.872	0.772	0.862	1.11	0.982	0.858	0.366	0.379	0.469	0.456
NCI-H661	0.302	0.413	0.308	0.358	0.284	0.349	0.436	0.368	0.316	0.564	0.458	0.452	0.517	0.963	0.758	0.81	0.738
NCI-H727	0.253	0.471	0.246	0.298	0.343	0.439	0.416	0.403	0.337	0.841	1.01	0.887	0.939	0.555	0.642	0.703	0.688
NCI-H838	0.343	0.38	0.514	0.472	0.543	0.535	0.444	0.598	0.472	1.3	1.16	1.2	1.04	0.81	0.933	0.915	0.859
NCI-H1299	0.571	0.555	0.773	0.699	0.854	0.838	0.934	0.906	0.563	1	0.986	1.06	0.962	1.05	0.978	0.992	1.03
NCI-H1355		0.474	0.481	0.26	0.343	0.374	0.443	0.487	0.434	1.14	1.09	1.08	0.982	0.805	0.813	0.713	0.749
NCI-H1395	0.611	0.555	0.538	0.562	0.655	0.82	1.02	0.701	0.61	1.03	0.996	1.12	0.951	0.433	0.45	0.452	0.45
NCI-H1437	0.346	0.413	0.428	0.359	0.443	0.455	0.391	0.425	0.462	0.928	0.867	0.907	0.915	0.662	0.647	0.692	0.664
NCI-H1650	0.493	0.52	0.506	0.515	0.476	0.776	0.675	0.705	0.548	0.666	0.941	0.88	0.77	0.977	0.914	0.762	0.77
NCI-H1651	0.502	0.482	0.466	0.627	0.643	0.658	0.754	0.741	0.595	1	0.967	1.17	0.834	0.175	0.182	0.18	0.183
NCI-H1666	0.388	0.358	0.31	0.409	0.235	0.404	0.365	0.428	0.396	0.772	0.626	0.663	0.444	0.753	0.806	0.631	0.769
NCI-H1703		0.233	0.205	0.241	0.222	0.248	0.265	0.248	0.225	1.69	1.24	1.31	0.677	0.486	0.368	0.284	0.336
NCI-H1734	0.354	0.446	0.43	0.491	0.388	0.529	0.541	0.488	0.432	1.21	1.66	1.1	1.05	0.645	0.683	0.689	0.604
NCI-H1755	0.418	0.421	0.424	0.389	0.362	0.446	0.541	0.498	0.423	1.2	1.02	1.09	1.02	0.903	0.941	1.01	0.873
NCI-H1792	0.286	0.25	0.23	0.295	0.242	0.321	0.299	0.227	0.253	0.834	1.04	0.937	0.922	0.492	0.436	0.491	0.322
NCI-H1793		0.466	0.323	0.357	0.274	0.306	0.309	0.365	0.279	0.755	1.22	0.72	0.872	1.1	1.01	1.05	0.92
NCI-H1915		0.978	0.891	0.609	1.02	0.953	0.898	1.14	1.04	1.16	1.05	1.13	0.968	0.267	0.27	0.263	0.246
